Data taken from ChEMBL document CHEMBL5723584 (2023).

Legend:
[1] = biological target: Tyrosine-protein kinase Blk (Homo sapiens) (UniProt P51451); test: activity of Blk(h) at 1.0 µM in the Eurofins Kinase panel; conditions: Compound concentration 1.0 uM
[2] = biological target: Aurora kinase C (Homo sapiens) (UniProt Q9UQB9); test: activity of Aurora-C(h) at 1.0 µM in the Eurofins Kinase panel; conditions: Compound concentration 1.0 uM
[3] = biological target: Casein kinase 2 (Homo sapiens) (UniProt P67870+P68400+P19784+Q8NEV1); test: activity of CK2(h) at 1.0 µM in the Eurofins Kinase panel; assay type: protein assay; conditions: Compound concentration 1.0 uM
[4] = biological target: Rho-associated protein kinase 1 (Homo sapiens) (UniProt Q13464); test: activity of ROCK-I(h) at 1.0 µM in the Eurofins Kinase panel; conditions: Compound concentration 1.0 uM
[5] = biological target: Serine/threonine-protein kinase/endoribonuclease IRE1 (Homo sapiens) (UniProt O75460); test: activity of IRE1(h) at 1.0 µM in the Eurofins Kinase panel; conditions: Compound concentration 1.0 uM
[6] = biological target: cGMP-dependent protein kinase 2 (Homo sapiens) (UniProt Q13237); test: activity of PRKG2(h) at 1.0 µM in the Eurofins Kinase panel; conditions: Compound concentration 1.0 uM
[7] = biological target: Serine/threonine-protein kinase pim-2 (Homo sapiens) (UniProt Q9P1W9); test: activity of Pim-2(h) at 1.0 µM in the Eurofins Kinase panel; conditions: Compound concentration 1.0 uM
[8] = biological target: Mitogen-activated protein kinase kinase kinase 2 (Homo sapiens) (UniProt Q9Y2U5); test: activity of MEKK2(h) at 1.0 µM in the Eurofins Kinase panel; conditions: Compound concentration 1.0 uM
[9] = biological target: Mitogen-activated protein kinase kinase kinase 5 (Homo sapiens) (UniProt Q99683); test: activity of ASK1(h) at 1.0 µM in the Eurofins Kinase panel; conditions: Compound concentration 1.0 uM
[10] = biological target: CDK6/cyclin D3 (Homo sapiens) (UniProt P30281+Q00534); test: activity of CDK6/cyclinD3(h) at 1.0 µM in the Eurofins Kinase panel; assay type: protein-complex assay; conditions: Compound concentration 1.0 uM
[11] = biological target: LIM domain kinase 2 (Homo sapiens) (UniProt P53671); test: activity of LIMK2(h) at 1.0 µM in the Eurofins Kinase panel; conditions: Compound concentration 1.0 uM
[12] = biological target: Serine/threonine-protein kinase MARK2 (Homo sapiens) (UniProt Q7KZI7); test: activity of PAR-1Balpha(h) at 1.0 µM in the Eurofins Kinase panel; conditions: Compound concentration 1.0 uM
[13] = biological target: Calcium/calmodulin-dependent protein kinase type 1B (Homo sapiens) (UniProt Q6P2M8); test: activity of CaMKIbeta(h) at 1.0 µM in the Eurofins Kinase panel; conditions: Compound concentration 1.0 uM
[14] = biological target: Tyrosine-protein kinase Srms (Homo sapiens) (UniProt Q9H3Y6); test: activity of SRMS(h) at 1.0 µM in the Eurofins Kinase panel; conditions: Compound concentration 1.0 uM
[15] = biological target: TRAF2 and NCK-interacting protein kinase (Homo sapiens) (UniProt Q9UKE5); test: activity of TNIK(h) at 1.0 µM in the Eurofins Kinase panel; conditions: Compound concentration 1.0 uM
[16] = biological target: cAMP-dependent protein kinase catalytic subunit alpha (Homo sapiens, UniProt P17612); test: Promega NanoBRET (PRKACA)
[17] = biological target: Mitogen-activated protein kinase kinase kinase 20 (Homo sapiens) (UniProt Q9NYL2); test: activity of ZAK(h) at 1.0 µM in the Eurofins Kinase panel; conditions: Compound concentration 1.0 uM
[18] = biological target: mTOR/FKBP12A/FKBP12B (Homo sapiens) (UniProt P62942+P68106+P42345); test: activity of mTOR/FKBP12(h) at 1.0 µM in the Eurofins Kinase panel; assay type: protein-complex assay; conditions: Compound concentration 1.0 uM
[19] = biological target: Calcium/calmodulin-dependent protein kinase type IV (Homo sapiens) (UniProt Q16566); test: activity of CaMKIV(h) at 1.0 µM in the Eurofins Kinase panel; conditions: Compound concentration 1.0 uM
[20] = biological target: Insulin-like growth factor 1 receptor (Homo sapiens) (UniProt P08069); test: activity of IGF-1R(h), activated at 1.0 µM in the Eurofins Kinase panel; conditions: Compound concentration 1.0 uM
[21] = biological target: Ephrin type-A receptor 5 (Homo sapiens) (UniProt P54756); test: activity of EphA5(h) at 1.0 µM in the Eurofins Kinase panel; conditions: Compound concentration 1.0 uM
[22] = biological target: Mitogen-activated protein kinase 11 (Homo sapiens) (UniProt Q15759); test: activity of SAPK2b(h) at 1.0 µM in the Eurofins Kinase panel; conditions: Compound concentration 1.0 uM
[23] = biological target: Serine/threonine-protein kinase N1 (Homo sapiens) (UniProt Q16512); test: activity of PRK1(h) at 1.0 µM in the Eurofins Kinase panel; conditions: Compound concentration 1.0 uM
[24] = biological target: Protein kinase C delta type (Homo sapiens) (UniProt Q05655); test: activity of PKCdelta(h) at 1.0 µM in the Eurofins Kinase panel; conditions: Compound concentration 1.0 uM
[25] = biological target: Mitogen-activated protein kinase kinase kinase kinase 4 (Homo sapiens) (UniProt O95819); test: activity of MAP4K4(h) at 1.0 µM in the Eurofins Kinase panel; conditions: Compound concentration 1.0 uM
[26] = biological target: Activin receptor type-1B (Homo sapiens) (UniProt P36896); test: activity of ALK4(h) at 1.0 µM in the Eurofins Kinase panel; conditions: Compound concentration 1.0 uM
[27] = biological target: Calcium/calmodulin-dependent protein kinase type 1G (Homo sapiens) (UniProt Q96NX5); test: activity of CaMKIgamma(h) at 1.0 µM in the Eurofins Kinase panel; conditions: Compound concentration 1.0 uM
[28] = biological target: Cyclin-dependent kinase 2/cyclin A (Homo sapiens) (UniProt P24941+P20248+P78396); test: activity of CDK2/cyclinA(h) at 1.0 µM in the Eurofins Kinase panel; assay type: protein-complex assay; conditions: Compound concentration 1.0 uM
[29] = biological target: Activin receptor type-1 (Homo sapiens) (UniProt Q04771); test: activity of ALK2(h) at 1.0 µM in the Eurofins Kinase panel; conditions: Compound concentration 1.0 uM
[30] = biological target: ALK tyrosine kinase receptor (Homo sapiens) (UniProt Q9UM73); test: activity of ALK(h) at 1.0 µM in the Eurofins Kinase panel; conditions: Compound concentration 1.0 uM
[31] = biological target: Interleukin-1 receptor-associated kinase 1 (Homo sapiens) (UniProt P51617); test: activity of IRAK1(h) at 1.0 µM in the Eurofins Kinase panel; conditions: Compound concentration 1.0 uM
[32] = biological target: Tyrosine-protein kinase FRK (Homo sapiens) (UniProt P42685); test: activity of PTK5(h) at 1.0 µM in the Eurofins Kinase panel; conditions: Compound concentration 1.0 uM
[33] = biological target: Platelet-derived growth factor receptor alpha (Homo sapiens) (UniProt P16234); test: activity of PDGFRalpha(h) at 1.0 µM in the Eurofins Kinase panel; conditions: Compound concentration 1.0 uM
[34] = biological target: Cyclin-dependent kinase-like 2 (Homo sapiens) (UniProt Q92772); test: activity of CDKL2(h) at 1.0 µM in the Eurofins Kinase panel; conditions: Compound concentration 1.0 uM
[35] = biological target: Serine/threonine-protein kinase Nek1 (Homo sapiens) (UniProt Q96PY6); test: activity of NEK1(h) at 1.0 µM in the Eurofins Kinase panel; conditions: Compound concentration 1.0 uM
[36] = biological target: Tyrosine-protein kinase ITK/TSK (Homo sapiens) (UniProt Q08881); test: activity of Itk(h) at 1.0 µM in the Eurofins Kinase panel; conditions: Compound concentration 1.0 uM
[37] = biological target: Aurora kinase A (Homo sapiens) (UniProt O14965); test: activity of Aurora-A(h) at 1.0 µM in the Eurofins Kinase panel; conditions: Compound concentration 1.0 uM
[38] = biological target: Serine/threonine-protein kinase DCLK1 (Homo sapiens) (UniProt O15075); test: activity of DCAMKL1(h) at 1.0 µM in the Eurofins Kinase panel; conditions: Compound concentration 1.0 uM
[39] = biological target: CDK9/cyclin T1 (Homo sapiens) (UniProt O60563+P50750); test: activity of CDK9/cyclin T1(h) at 1.0 µM in the Eurofins Kinase panel; assay type: protein-complex assay; conditions: Compound concentration 1.0 uM

Sequence of ALK tyrosine kinase receptor (Homo sapiens) (Q9UM73 19-1620 limits assumed): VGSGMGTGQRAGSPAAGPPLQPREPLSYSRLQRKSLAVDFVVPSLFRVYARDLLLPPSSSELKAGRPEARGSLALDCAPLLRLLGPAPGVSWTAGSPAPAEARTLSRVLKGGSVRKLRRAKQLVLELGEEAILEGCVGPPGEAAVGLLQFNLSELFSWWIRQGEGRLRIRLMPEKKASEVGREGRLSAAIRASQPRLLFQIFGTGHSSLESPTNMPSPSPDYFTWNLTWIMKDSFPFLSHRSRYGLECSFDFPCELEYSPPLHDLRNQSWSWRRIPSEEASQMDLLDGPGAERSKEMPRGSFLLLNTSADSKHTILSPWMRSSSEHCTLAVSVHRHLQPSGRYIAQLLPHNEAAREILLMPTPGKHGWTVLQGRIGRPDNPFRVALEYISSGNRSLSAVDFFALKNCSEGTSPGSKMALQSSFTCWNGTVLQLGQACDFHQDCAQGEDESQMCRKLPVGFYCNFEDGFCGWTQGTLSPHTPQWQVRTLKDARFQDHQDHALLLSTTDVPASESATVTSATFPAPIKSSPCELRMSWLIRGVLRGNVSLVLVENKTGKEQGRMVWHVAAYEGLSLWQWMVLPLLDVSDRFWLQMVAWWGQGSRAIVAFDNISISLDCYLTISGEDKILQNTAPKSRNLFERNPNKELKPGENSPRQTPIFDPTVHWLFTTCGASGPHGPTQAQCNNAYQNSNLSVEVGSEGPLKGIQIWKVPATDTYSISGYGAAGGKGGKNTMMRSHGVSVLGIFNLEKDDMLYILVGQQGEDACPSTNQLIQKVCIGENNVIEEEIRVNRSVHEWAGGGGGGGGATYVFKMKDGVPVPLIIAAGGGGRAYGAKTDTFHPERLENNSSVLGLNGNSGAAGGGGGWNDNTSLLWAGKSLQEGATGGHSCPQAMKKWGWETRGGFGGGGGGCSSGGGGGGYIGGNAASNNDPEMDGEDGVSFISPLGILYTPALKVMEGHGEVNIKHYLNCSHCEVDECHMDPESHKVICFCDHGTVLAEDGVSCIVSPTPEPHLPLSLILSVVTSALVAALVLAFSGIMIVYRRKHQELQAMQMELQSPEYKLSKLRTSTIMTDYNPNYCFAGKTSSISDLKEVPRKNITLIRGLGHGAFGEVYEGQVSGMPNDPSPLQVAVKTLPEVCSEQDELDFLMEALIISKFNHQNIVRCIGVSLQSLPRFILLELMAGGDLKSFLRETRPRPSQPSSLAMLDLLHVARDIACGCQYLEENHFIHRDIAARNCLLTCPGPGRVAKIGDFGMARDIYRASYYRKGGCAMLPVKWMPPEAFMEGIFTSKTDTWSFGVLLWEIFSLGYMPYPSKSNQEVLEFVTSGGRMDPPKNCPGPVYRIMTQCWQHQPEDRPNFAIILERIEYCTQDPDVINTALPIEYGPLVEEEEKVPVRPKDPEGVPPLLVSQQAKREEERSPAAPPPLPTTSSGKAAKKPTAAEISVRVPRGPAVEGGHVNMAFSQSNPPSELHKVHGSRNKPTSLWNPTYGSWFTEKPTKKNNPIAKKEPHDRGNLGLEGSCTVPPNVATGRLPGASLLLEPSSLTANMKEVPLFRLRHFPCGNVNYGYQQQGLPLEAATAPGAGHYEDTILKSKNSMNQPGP
Sequence of Mitogen-activated protein kinase kinase kinase 5 (Homo sapiens) (Q99683 whole entry): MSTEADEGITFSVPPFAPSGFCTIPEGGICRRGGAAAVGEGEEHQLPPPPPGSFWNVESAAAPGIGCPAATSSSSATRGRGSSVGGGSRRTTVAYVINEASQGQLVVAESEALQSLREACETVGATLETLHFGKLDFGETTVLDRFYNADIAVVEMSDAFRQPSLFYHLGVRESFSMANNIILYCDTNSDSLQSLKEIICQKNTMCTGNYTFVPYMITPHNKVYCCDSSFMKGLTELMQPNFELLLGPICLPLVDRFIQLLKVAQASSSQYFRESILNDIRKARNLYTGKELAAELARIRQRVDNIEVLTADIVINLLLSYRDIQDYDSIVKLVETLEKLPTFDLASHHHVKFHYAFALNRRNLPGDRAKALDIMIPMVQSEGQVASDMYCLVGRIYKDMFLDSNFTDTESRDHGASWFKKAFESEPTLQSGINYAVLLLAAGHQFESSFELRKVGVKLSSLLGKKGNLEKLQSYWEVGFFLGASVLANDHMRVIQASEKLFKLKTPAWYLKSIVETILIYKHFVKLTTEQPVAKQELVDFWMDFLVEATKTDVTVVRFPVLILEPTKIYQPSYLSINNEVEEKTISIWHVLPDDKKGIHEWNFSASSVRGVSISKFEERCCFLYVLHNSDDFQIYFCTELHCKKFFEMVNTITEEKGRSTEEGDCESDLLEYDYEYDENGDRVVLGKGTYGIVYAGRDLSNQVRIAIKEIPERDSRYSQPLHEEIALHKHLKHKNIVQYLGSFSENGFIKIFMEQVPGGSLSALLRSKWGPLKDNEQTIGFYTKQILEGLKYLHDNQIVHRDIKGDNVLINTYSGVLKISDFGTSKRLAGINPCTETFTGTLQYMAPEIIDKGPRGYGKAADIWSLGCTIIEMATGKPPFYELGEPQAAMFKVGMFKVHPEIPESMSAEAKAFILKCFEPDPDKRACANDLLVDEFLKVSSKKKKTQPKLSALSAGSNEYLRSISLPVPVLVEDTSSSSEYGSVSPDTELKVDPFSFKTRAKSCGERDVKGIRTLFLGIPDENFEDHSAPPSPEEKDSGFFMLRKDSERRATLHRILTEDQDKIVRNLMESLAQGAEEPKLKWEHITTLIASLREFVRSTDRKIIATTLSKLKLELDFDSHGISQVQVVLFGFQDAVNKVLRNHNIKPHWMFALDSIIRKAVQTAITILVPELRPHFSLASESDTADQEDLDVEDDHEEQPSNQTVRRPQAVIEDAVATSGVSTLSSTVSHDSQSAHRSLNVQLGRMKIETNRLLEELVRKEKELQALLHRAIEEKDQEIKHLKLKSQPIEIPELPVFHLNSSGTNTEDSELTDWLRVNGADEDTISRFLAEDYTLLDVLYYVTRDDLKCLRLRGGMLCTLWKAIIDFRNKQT
Sequence of Rho-associated protein kinase 1 (Homo sapiens) (Q13464 2-1354 limits assumed): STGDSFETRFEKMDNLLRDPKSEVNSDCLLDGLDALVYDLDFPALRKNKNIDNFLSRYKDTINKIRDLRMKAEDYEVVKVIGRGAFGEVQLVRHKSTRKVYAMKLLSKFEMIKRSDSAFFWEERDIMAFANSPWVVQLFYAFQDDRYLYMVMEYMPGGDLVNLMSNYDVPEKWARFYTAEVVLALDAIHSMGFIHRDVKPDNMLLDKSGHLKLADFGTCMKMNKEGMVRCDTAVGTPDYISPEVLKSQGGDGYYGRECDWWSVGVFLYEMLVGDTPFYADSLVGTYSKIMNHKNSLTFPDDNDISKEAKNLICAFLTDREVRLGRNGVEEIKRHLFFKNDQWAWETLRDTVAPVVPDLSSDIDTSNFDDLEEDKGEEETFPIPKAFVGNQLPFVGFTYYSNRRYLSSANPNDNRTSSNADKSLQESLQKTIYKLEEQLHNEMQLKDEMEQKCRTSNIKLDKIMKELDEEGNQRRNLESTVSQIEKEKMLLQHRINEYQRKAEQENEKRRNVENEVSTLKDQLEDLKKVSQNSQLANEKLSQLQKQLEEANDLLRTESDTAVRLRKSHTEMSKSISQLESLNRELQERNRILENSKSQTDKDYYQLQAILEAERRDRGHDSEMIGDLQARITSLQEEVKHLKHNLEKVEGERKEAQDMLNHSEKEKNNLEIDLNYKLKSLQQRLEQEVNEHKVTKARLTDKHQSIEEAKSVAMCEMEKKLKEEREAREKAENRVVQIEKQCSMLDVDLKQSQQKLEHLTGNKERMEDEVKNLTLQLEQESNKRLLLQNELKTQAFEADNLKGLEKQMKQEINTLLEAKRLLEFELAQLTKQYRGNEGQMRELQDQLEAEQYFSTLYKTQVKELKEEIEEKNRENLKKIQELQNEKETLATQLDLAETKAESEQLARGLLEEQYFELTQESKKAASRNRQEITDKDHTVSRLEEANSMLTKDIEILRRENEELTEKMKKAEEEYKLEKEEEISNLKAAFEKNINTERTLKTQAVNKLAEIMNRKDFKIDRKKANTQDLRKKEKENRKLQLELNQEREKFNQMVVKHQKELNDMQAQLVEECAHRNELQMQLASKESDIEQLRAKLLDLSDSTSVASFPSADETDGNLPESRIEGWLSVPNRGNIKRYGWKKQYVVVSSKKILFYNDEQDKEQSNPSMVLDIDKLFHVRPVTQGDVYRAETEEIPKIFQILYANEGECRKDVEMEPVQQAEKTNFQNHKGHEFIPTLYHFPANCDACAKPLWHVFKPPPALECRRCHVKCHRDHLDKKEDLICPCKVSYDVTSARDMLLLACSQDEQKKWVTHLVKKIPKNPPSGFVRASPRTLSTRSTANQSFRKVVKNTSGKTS
Sequence of Mitogen-activated protein kinase kinase kinase 20 (Homo sapiens) (Q9NYL2 2-800 limits assumed): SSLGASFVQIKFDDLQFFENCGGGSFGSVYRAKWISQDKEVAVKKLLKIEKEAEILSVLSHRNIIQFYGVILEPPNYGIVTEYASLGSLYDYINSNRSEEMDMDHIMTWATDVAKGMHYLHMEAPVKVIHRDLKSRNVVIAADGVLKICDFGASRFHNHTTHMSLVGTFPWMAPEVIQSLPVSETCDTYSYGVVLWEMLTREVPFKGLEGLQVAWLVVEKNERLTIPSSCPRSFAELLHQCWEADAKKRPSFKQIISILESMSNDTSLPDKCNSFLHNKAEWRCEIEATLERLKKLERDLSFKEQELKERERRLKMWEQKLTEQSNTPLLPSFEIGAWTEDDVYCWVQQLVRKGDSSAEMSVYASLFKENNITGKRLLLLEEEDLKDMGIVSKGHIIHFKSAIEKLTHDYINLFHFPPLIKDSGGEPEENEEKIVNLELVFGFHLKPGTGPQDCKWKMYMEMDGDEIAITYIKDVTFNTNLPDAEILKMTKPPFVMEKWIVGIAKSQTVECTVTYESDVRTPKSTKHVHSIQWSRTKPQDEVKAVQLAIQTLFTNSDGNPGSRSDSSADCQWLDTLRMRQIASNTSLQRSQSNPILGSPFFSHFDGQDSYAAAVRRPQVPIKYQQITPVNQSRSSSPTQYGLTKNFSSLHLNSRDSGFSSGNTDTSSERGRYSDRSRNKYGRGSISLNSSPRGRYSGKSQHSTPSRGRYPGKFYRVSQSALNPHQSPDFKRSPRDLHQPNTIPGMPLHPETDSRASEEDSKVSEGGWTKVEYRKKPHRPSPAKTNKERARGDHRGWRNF

Cc1cc2c(-c3ccc(NC(=O)[C@H](N)CC(C)(C)C)cc3C)ccnc2[nH]1
activity [1]: 88% | activity [2]: 94% | activity [3]: 112% | activity [4]: 96% | activity [5]: 99% | activity [6]: 110% | activity [7]: 117% | activity [8]: 122% | activity [9]: 100% | activity [10]: 90% | activity [11]: 72% | activity [12]: 88% | activity [13]: 85% | activity [14]: 86% | activity [15]: 93% | IC50 [16]: > 10 µM (not active) | activity [17]: 83% | activity [18]: 120% | activity [19]: 99% | activity [20]: 93% | activity [21]: 89% | activity [22]: 90% | activity [23]: 91% | activity [24]: 93% | activity [25]: 101% | activity [26]: 94% | activity [27]: 110% | activity [28]: 87% | activity [29]: 122% | activity [30]: 77% | activity [31]: 95% | activity [32]: 90% | activity [33]: 116% | activity [34]: 80% | activity [35]: 94% | activity [36]: 86% | activity [37]: 97% | activity [38]: 95% | activity [39]: 81%
